Measured values: the supplement of paper PMC10307832

Tests used:
Test in all cases: relative viability (nuclei count vs DMSO), 5 days (fraction); higher = more cells survive
ABC-1 = system: ABC-1
How it was run: (§1)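 Cells from lung cancer lines were seeded into 1536-well plates and, one day later, dosed by pin tool. Treatments were either a single drug or a fixed dose of an anchor drug with five library-drug doses (not always all listed) in √10 steps. After 5 days, nuclei were stained in a one-step fixation (final 0.05% Triton X-100, 1% formaldehyde, 1 ug/ml Hoechst) and counted on 4× images, and relative viability is the treated-to-vehicle nuclei ratio, as the median of duplicate plates.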

HARA = system: HARA
How it was run: as §1

LU99A = system: LU99A
How it was run: as §1

UMC-11 = system: UMC-11
How it was run: as §1

NCI-H2085 = system: NCI-H2085
How it was run: as §1

NCI-H2126 = system: NCI-H2126
How it was run: as §1

NCI-H1355 = system: NCI-H1355
How it was run: as §1

EPLC-272H = system: EPLC-272H
How it was run: as §1

HCC-44 = system: HCC-44
How it was run: as §1

NCI-H2023 = system: NCI-H2023
How it was run: as §1

NCI-H838 = system: NCI-H838
How it was run: as §1

PC-14 = system: PC-14
How it was run: as §1

NCI-H1915 = system: NCI-H1915
How it was run: as §1

SW 1573 = system: SW 1573
How it was run: as §1

HOP-62 = system: HOP-62
How it was run: as §1

NCI-H1651 = system: NCI-H1651
How it was run: as §1

NCI-H1993 = system: NCI-H1993
How it was run: as §1

NCI-H2347 = system: NCI-H2347
How it was run: as §1

NCI-H650 = system: NCI-H650
How it was run: as §1

COR-L23 = system: COR-L23
How it was run: as §1

HCC-15 = system: HCC-15
How it was run: as §1

LC-2-ad = system: LC-2-ad
How it was run: as §1

O=c1cc(N2CCOCC2)oc2c(-c3cccc4c3sc3ccccc34)cccc12 + CC(C)C[C@H](NC(=O)[C@H](Cc1ccccc1)NC(=O)c1cnccn1)B(O)O [Bortezomib] (partner 0.002 µM)
relative viability (ABC-1; first compound 0.01 µM): 0.331
relative viability (ABC-1; first compound 0.03162 µM): 0.347
relative viability (ABC-1; first compound 0.1 µM): 0.336
relative viability (ABC-1; first compound 0.3162 µM): 0.261
relative viability (ABC-1; first compound 1 µM): 0.332
relative viability (HARA; first compound 0.01 µM): 1.16
relative viability (HARA; first compound 0.03162 µM): 1.17
relative viability (HARA; first compound 0.1 µM): 1.19
relative viability (HARA; first compound 0.3162 µM): 1.1
relative viability (HARA; first compound 1 µM): 1.1
relative viability (LU99A; first compound 0.01 µM): 1.25
relative viability (LU99A; first compound 0.03162 µM): 1.11
relative viability (LU99A; first compound 0.1 µM): 1.19
relative viability (LU99A; first compound 0.3162 µM): 1.03
relative viability (LU99A; first compound 1 µM): 1.29
relative viability (UMC-11; first compound 0.01 µM): 0.63
relative viability (UMC-11; first compound 0.03162 µM): 0.505
relative viability (UMC-11; first compound 0.1 µM): 0.72
relative viability (UMC-11; first compound 0.3162 µM): 0.736
relative viability (UMC-11; first compound 1 µM): 0.728
relative viability (NCI-H2085; first compound 0.01 µM): 0.995
relative viability (NCI-H2085; first compound 0.03162 µM): 1.01
relative viability (NCI-H2085; first compound 0.1 µM): 1.03
relative viability (NCI-H2085; first compound 0.3162 µM): 1.06
relative viability (NCI-H2085; first compound 1 µM): 0.967
relative viability (NCI-H2126; first compound 0.01 µM): 1.14
relative viability (NCI-H2126; first compound 0.03162 µM): 1.11
relative viability (NCI-H2126; first compound 0.1 µM): 1.13
relative viability (NCI-H2126; first compound 0.3162 µM): 1.06
relative viability (NCI-H2126; first compound 1 µM): 1.14
relative viability (NCI-H1355; first compound 0.01 µM): 1.26
relative viability (NCI-H1355; first compound 0.03162 µM): 1.15
relative viability (NCI-H1355; first compound 0.3162 µM): 1.19
relative viability (NCI-H1355; first compound 1 µM): 1.25
relative viability (EPLC-272H; first compound 0.01 µM): 0.903
relative viability (EPLC-272H; first compound 0.03162 µM): 0.916
relative viability (EPLC-272H; first compound 0.3162 µM): 0.854
relative viability (EPLC-272H; first compound 1 µM): 0.935
relative viability (HCC-44; first compound 0.01 µM): 0.889
relative viability (HCC-44; first compound 0.03162 µM): 0.875
relative viability (HCC-44; first compound 0.1 µM): 0.906
relative viability (HCC-44; first compound 0.3162 µM): 0.881
relative viability (HCC-44; first compound 1 µM): 0.896
relative viability (NCI-H2023; first compound 0.01 µM): 1.04
relative viability (NCI-H2023; first compound 0.03162 µM): 1.02
relative viability (NCI-H2023; first compound 0.1 µM): 1.05
relative viability (NCI-H2023; first compound 0.3162 µM): 0.936
relative viability (NCI-H2023; first compound 1 µM): 0.907
relative viability (NCI-H838; first compound 0.01 µM): 0.779
relative viability (NCI-H838; first compound 0.03162 µM): 0.673
relative viability (NCI-H838; first compound 0.1 µM): 0.805
relative viability (NCI-H838; first compound 0.3162 µM): 0.813
relative viability (NCI-H838; first compound 1 µM): 0.908
relative viability (PC-14; first compound 0.01 µM): 0.954
relative viability (PC-14; first compound 0.03162 µM): 0.763
relative viability (PC-14; first compound 0.1 µM): 0.868
relative viability (PC-14; first compound 0.3162 µM): 0.772
relative viability (PC-14; first compound 1 µM): 0.864
relative viability (NCI-H1915; first compound 0.01 µM): 0.994
relative viability (NCI-H1915; first compound 0.03162 µM): 1.01
relative viability (NCI-H1915; first compound 0.1 µM): 0.867
relative viability (NCI-H1915; first compound 0.3162 µM): 0.94
relative viability (NCI-H1915; first compound 1 µM): 0.995
relative viability (SW 1573; first compound 0.01 µM): 1.32
relative viability (SW 1573; first compound 0.03162 µM): 0.985
relative viability (SW 1573; first compound 0.1 µM): 1.07
relative viability (SW 1573; first compound 0.3162 µM): 1.12
relative viability (SW 1573; first compound 1 µM): 0.952
relative viability (HOP-62; first compound 0.01 µM): 0.497
relative viability (HOP-62; first compound 0.03162 µM): 0.565
relative viability (HOP-62; first compound 0.1 µM): 0.963
relative viability (HOP-62; first compound 0.3162 µM): 0.81
relative viability (HOP-62; first compound 1 µM): 0.723
relative viability (NCI-H1651; first compound 0.01 µM): 0.897
relative viability (NCI-H1651; first compound 0.03162 µM): 0.991
relative viability (NCI-H1651; first compound 0.1 µM): 0.952
relative viability (NCI-H1651; first compound 0.3162 µM): 0.939
relative viability (NCI-H1651; first compound 1 µM): 0.871
relative viability (NCI-H1993; first compound 0.01 µM): 1
relative viability (NCI-H1993; first compound 0.03162 µM): 1.09
relative viability (NCI-H1993; first compound 0.1 µM): 1.33
relative viability (NCI-H1993; first compound 0.3162 µM): 1.11
relative viability (NCI-H1993; first compound 1 µM): 1.07
relative viability (NCI-H2347; first compound 0.01 µM): 1.15
relative viability (NCI-H2347; first compound 0.03162 µM): 1.12
relative viability (NCI-H2347; first compound 0.1 µM): 0.838
relative viability (NCI-H2347; first compound 0.3162 µM): 0.835
relative viability (NCI-H2347; first compound 1 µM): 0.839
relative viability (NCI-H650; first compound 0.01 µM): 0.845
relative viability (NCI-H650; first compound 0.03162 µM): 0.837
relative viability (NCI-H650; first compound 0.3162 µM): 1.12
relative viability (NCI-H650; first compound 1 µM): 0.632
relative viability (COR-L23; first compound 0.01 µM): 1.03
relative viability (COR-L23; first compound 0.03162 µM): 1
relative viability (COR-L23; first compound 0.1 µM): 1.09
relative viability (COR-L23; first compound 0.3162 µM): 0.904
relative viability (COR-L23; first compound 1 µM): 1.03
relative viability (HCC-15; first compound 0.01 µM): 0.948
relative viability (HCC-15; first compound 0.03162 µM): 1.06
relative viability (HCC-15; first compound 0.1 µM): 1.12
relative viability (HCC-15; first compound 0.3162 µM): 0.948
relative viability (HCC-15; first compound 1 µM): 1.04
relative viability (LC-2-ad; first compound 0.01 µM): 1.15
relative viability (LC-2-ad; first compound 0.1 µM): 1.09
relative viability (LC-2-ad; first compound 0.3162 µM): 0.993
relative viability (LC-2-ad; first compound 1 µM): 1.05
